Measured values: patent publication US8883963B2 (Cadila Healthcare Limited, priority 2007, dated 2014)

Columns and labels:
[1] = Stability in simulated intestinal fluid; assay type: in vitro ADME; conditions: 2 μM peptidomimetic, simulated intestinal fluid pH 7.5, 37° C.; for half-life at 2 μM: read-out: half-life (t1/2) when incubated with simulated intestinal fluid
Procedure: (§1) Reactions were terminated by the addition of TFA/H2O (15 mL, 10% (v/v)). […] The column was equilibrated with TFA/H20, at a flow rate of 1 mL/min.

Human GLP-1 receptor = biological target: T1, Human GLP-1 receptor (Homo sapiens, UniProt P43220); experiment: In vitro Human GLP-1 R agonist activity (cyclic AMP determination) in CHO/human GLP1R cells; assay type: cell-based
T1 construct: The full-length cDNA was cloned in pcDNA3.1(+); expressed in transfected cells

[2] = Stability in simulated gastric fluid; assay type: in vitro ADME; conditions: 2 μM peptidomimetic, simulated gastric fluid pH 1.5, 37° C.; for half-life at 2 μM: read-out: half-life (t1/2) when incubated with simulated gastric fluid
Procedure: as §1

[3] = Stability in human plasma; assay type: in vitro ADME; conditions: 2 μM peptidomimetic, pooled human plasma, 37° C.; for half-life at 2 μM: pH 7.8, read-out: half-life (t1/2) when incubated with human plasma
Procedure: as §1

[4] = Stability in liver microsomes; assay type: in vitro ADME; conditions: 2 μM peptidomimetic, human liver microsomes, 37° C.; for half-life at 2 μM: pH 7.8, read-out: half-life (t1/2) when incubated with liver microsomes
Procedure: as §1

DPP IV = DPP IV (Homo sapiens, UniProt P27487); experiment: Stability against DPP IV enzyme; assay type: in vitro ADME; conditions: 37° C.; for % degradation of peptidomimetics in 24 h when incubated with DPP-IV enzyme: 2 μM peptidomimetic; for half-life at 2 μM: DPP IV enzyme, pH 7.8, 2 μM peptidomimetic, read-out: half-life (t1/2) when incubated with DPP-IV enzyme
Procedure: as §1

[5] = tested on: RIN5F (Rat Insulinoma) cells; experiment: In vitro glucose-dependent insulin secretion (RIN5F cell assay screening protocol); assay type: cell-based; conditions: 16.7 mM glucose load

Chain of DPP IV (P27487 whole entry, species assumed): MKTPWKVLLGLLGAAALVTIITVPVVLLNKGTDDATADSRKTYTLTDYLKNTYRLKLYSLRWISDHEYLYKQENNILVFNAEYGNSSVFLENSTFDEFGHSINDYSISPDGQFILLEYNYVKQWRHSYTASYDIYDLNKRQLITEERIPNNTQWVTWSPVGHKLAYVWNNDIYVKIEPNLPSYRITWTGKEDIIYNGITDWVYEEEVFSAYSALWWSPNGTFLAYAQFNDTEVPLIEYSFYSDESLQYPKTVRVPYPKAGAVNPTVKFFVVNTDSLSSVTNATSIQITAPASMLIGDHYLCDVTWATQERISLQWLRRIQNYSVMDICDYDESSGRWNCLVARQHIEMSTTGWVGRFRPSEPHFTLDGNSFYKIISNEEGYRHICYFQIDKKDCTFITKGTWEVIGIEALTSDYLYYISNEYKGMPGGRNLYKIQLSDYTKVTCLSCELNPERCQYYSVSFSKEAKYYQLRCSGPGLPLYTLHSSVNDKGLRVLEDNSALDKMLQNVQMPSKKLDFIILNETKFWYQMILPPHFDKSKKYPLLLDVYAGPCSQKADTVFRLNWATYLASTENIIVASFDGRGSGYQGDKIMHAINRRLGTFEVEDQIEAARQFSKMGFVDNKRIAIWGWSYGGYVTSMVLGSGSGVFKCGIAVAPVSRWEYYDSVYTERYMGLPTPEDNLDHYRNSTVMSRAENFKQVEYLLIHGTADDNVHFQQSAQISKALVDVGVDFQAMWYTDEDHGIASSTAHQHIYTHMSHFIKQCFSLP
T1 sequence (P43220 24-463): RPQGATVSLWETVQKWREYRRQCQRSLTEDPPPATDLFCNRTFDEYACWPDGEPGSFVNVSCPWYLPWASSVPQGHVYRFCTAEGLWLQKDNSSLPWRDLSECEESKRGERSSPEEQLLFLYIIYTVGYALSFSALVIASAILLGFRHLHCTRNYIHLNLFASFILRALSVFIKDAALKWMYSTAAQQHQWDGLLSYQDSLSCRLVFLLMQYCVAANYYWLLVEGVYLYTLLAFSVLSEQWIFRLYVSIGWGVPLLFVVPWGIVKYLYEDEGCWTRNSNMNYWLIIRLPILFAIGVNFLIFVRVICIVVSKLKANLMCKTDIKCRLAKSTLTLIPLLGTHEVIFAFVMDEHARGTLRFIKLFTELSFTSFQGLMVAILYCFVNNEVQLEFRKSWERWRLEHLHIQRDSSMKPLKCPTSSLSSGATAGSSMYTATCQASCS

SMILES: CCc1cc(OC)ccc1-c1ccc(CC(NC(=O)[C@H](CC(=O)O)NC(=O)[C@H](CO)NC(=O)[C@@H](NC(=O)[C@H](Cc2ccccc2)NC(=O)[C@@H](NC(=O)CNC(=O)[C@H](CCC(N)=O)NC(=O)[C@H](CO)NC(=O)[C@@H](N)Cc2c[nH]cn2)[C@@H](C)O)[C@@H](C)O)C(=O)NC(CCCc2ccccc2C(F)(F)F)C(N)=O)cc1 (single isomer, unassigned) [compound 47]
- half-life (t1/2) when incubated with simulated intestinal fluid [1]: (6) h
- % degradation of peptidomimetics in 24 h when incubated with simulated intestinal fluid [1]: 55%
- Human GLP-1 R activity (cAMP release), % activity with respect to control (Human GLP-1 receptor; 1 nM test compound): 55 ± 0.16%
- Human GLP-1 R activity (cAMP release), % activity with respect to control (Human GLP-1 receptor; 10 nM test compound): 89 ± 0.05%
- Human GLP-1 R activity (cAMP release), % activity with respect to control (Human GLP-1 receptor; 100 nM test compound): 93 ± 0.09%
- Human GLP-1 R activity (cAMP release), % activity with respect to control (Human GLP-1 receptor; 1 μM test compound): 99 ± 0.02%
- Human GLP-1 R activity (cAMP release), % activity with respect to control (Human GLP-1 receptor; 10 μM test compound): 99 ± 0.04%
- half-life (t1/2) when incubated with simulated gastric fluid [2]: (8) h
- % degradation of peptidomimetics in 24 h when incubated with simulated gastric fluid [2]: 12%
- % degradation of peptidomimetics in 24 h when incubated with human plasma [3]: 78%
- half-life at 2 μM [3]: 480 min
- % degradation of peptidomimetics in 24 h when incubated with liver microsomes [4]: 79%
- half-life at 2 μM [4]: 60 min
- % degradation of peptidomimetics in 24 h when incubated with DPP-IV enzyme (DPP IV): 76%
- half-life at 2 μM (DPP IV): 540 min
- Insulin secretion ([5]; 0.1 nM test compd.): 13.1 ± 0.11 pg/µg/h
- Insulin secretion ([5]; 1 nM test compd.): 14.9 ± 0.17 pg/µg/h
- Insulin secretion ([5]; 10 nM test compd.): 28.8 ± 0.44 pg/µg/h

SMILES: CCc1cc(OC)ccc1-c1ccc(CC(NC(=O)[C@H](CC(=O)O)NC(=O)[C@H](CO)NC(=O)[C@@H](NC(=O)C(C)(Cc2ccccc2F)NC(=O)[C@@H](NC(=O)CNC(=O)[C@H](CC(C(F)(F)F)C(F)(F)F)NC(=O)C(C)(C)NC(=O)[C@H](Cc2c[nH]cn2)NC(C)=O)[C@@H](C)O)[C@@H](C)O)C(=O)NC(CCCc2ccccc2)C(N)=O)cc1 (single isomer, unassigned) [compound 210]
- % degradation of peptidomimetics in 24 h when incubated with simulated intestinal fluid [1]: 100%
- half-life at 2 μM [1]: 30 min
- Human GLP-1 R activity (cAMP release), % activity with respect to control (Human GLP-1 receptor; 1 nM test compound): 46 ± 0.022%
- Human GLP-1 R activity (cAMP release), % activity with respect to control (Human GLP-1 receptor; 10 nM test compound): 85 ± 0.46%
- Human GLP-1 R activity (cAMP release), % activity with respect to control (Human GLP-1 receptor; 100 nM test compound): 90 ± 0.41%
- Human GLP-1 R activity (cAMP release), % activity with respect to control (Human GLP-1 receptor; 1 μM test compound): 99 ± 0.66%
- Human GLP-1 R activity (cAMP release), % activity with respect to control (Human GLP-1 receptor; 10 μM test compound): 99 ± 0.03%
- % degradation of peptidomimetics in 24 h when incubated with simulated gastric fluid [2]: 100%
- half-life at 2 μM [2]: 30 min
- half-life (t1/2) when incubated with human plasma [3]: (9) h
- % degradation of peptidomimetics in 24 h when incubated with human plasma [3]: 77%
- % degradation of peptidomimetics in 24 h when incubated with liver microsomes [4]: 100%
- half-life at 2 μM [4]: 30 min
- % degradation of peptidomimetics in 24 h when incubated with DPP-IV enzyme (DPP IV): 75%
- Insulin secretion ([5]; 0.1 nM test compd.): 11.9 ± 0.17 pg/µg/h
- Insulin secretion ([5]; 1 nM test compd.): 14.2 ± 0.13 pg/µg/h
- Insulin secretion ([5]; 10 nM test compd.): 27.6 ± 0.16 pg/µg/h

SMILES: CCc1cc(OC)ccc1-c1ccc(CC(NC(=O)[C@H](CC(=O)O)NC(=O)[C@H](CO)NC(=O)[C@@H](NC(=O)[C@H](Cc2ccccc2)NC(=O)[C@@H](NC(=O)CNC(=O)[C@H](CCC(N)=O)NC(=O)[C@H](CO)NC(=O)[C@@H](N)Cc2c[nH]cn2)[C@@H](C)O)[C@@H](C)O)C(=O)NC(CCCc2ccccc2Cl)C(N)=O)cc1 (single isomer, unassigned) [compound 50]
- half-life (t1/2) when incubated with simulated intestinal fluid [1]: (6) h
- % degradation of peptidomimetics in 24 h when incubated with simulated intestinal fluid [1]: 50%
- Human GLP-1 R activity (cAMP release), % activity with respect to control (Human GLP-1 receptor; 1 nM test compound): 60 ± 0.12%
- Human GLP-1 R activity (cAMP release), % activity with respect to control (Human GLP-1 receptor; 10 nM test compound): 92 ± 0.15%
- Human GLP-1 R activity (cAMP release), % activity with respect to control (Human GLP-1 receptor; 100 nM test compound): 98 ± 0.18%
- Human GLP-1 R activity (cAMP release), % activity with respect to control (Human GLP-1 receptor; 1 μM test compound): 99 ± 0.03%
- Human GLP-1 R activity (cAMP release), % activity with respect to control (Human GLP-1 receptor; 10 μM test compound): 99 ± 0.09%
- half-life (t1/2) when incubated with simulated gastric fluid [2]: (8) h
- % degradation of peptidomimetics in 24 h when incubated with simulated gastric fluid [2]: 13%
- % degradation of peptidomimetics in 24 h when incubated with human plasma [3]: 80%
- half-life at 2 μM [3]: 480 min
- % degradation of peptidomimetics in 24 h when incubated with liver microsomes [4]: 82%
- half-life at 2 μM [4]: 60 min
- % degradation of peptidomimetics in 24 h when incubated with DPP-IV enzyme (DPP IV): 77%
- half-life at 2 μM (DPP IV): 540 min
- Insulin secretion ([5]; 0.1 nM test compd.): 15.4 ± 0.14 pg/µg/h
- Insulin secretion ([5]; 1 nM test compd.): 21.2 ± 0.18 pg/µg/h
- Insulin secretion ([5]; 10 nM test compd.): 35.6 ± 0.17 pg/µg/h

SMILES: CCc1cc(OC)ccc1-c1ccc(CC(NC(=O)[C@H](CC(=O)O)NC(=O)[C@H](CO)NC(=O)[C@@H](NC(=O)C(C)(Cc2ccccc2)NC(=O)[C@@H](NC(=O)CNC(=O)[C@H](CC(C(F)(F)F)C(F)(F)F)NC(=O)C(C)(C)NC(=O)[C@@H](N)Cc2c[nH]cn2)[C@@H](C)O)[C@@H](C)O)C(=O)NC(CCCc2ccccc2)C(N)=O)cc1 (single isomer, unassigned) [compound 230]
- % degradation of peptidomimetics in 24 h when incubated with simulated intestinal fluid [1]: 100 ) %
- half-life at 2 μM [1]: 30 min
- Human GLP-1 R activity (cAMP release), % activity with respect to control (Human GLP-1 receptor; 1 nM test compound): 99 ± 0.12%
- Human GLP-1 R activity (cAMP release), % activity with respect to control (Human GLP-1 receptor; 10 nM test compound): 99 ± 0.08%
- Human GLP-1 R activity (cAMP release), % activity with respect to control (Human GLP-1 receptor; 100 nM test compound): 99 ± 0.11%
- Human GLP-1 R activity (cAMP release), % activity with respect to control (Human GLP-1 receptor; 1 μM test compound): 99 ± 0.12%
- Human GLP-1 R activity (cAMP release), % activity with respect to control (Human GLP-1 receptor; 10 μM test compound): 99 ± 0.16%
- % degradation of peptidomimetics in 24 h when incubated with simulated gastric fluid [2]: 100%
- half-life at 2 μM [2]: 30 min
- half-life (t1/2) when incubated with human plasma [3]: (9) h
- % degradation of peptidomimetics in 24 h when incubated with human plasma [3]: 70%
- % degradation of peptidomimetics in 24 h when incubated with liver microsomes [4]: 100%
- half-life at 2 μM [4]: 30 min
- % degradation of peptidomimetics in 24 h when incubated with DPP-IV enzyme (DPP IV): 86%
- Insulin secretion ([5]; 0.1 nM test compd.): 12.1 ± 0.51 pg/µg/h
- Insulin secretion ([5]; 1 nM test compd.): 14.1 ± 0.19 pg/µg/h
- Insulin secretion ([5]; 10 nM test compd.): 28.1 ± 0.29 pg/µg/h
